Laboratory results from publication PMC5341070, “Small molecule inhibitors block Gas6-inducible TAM activation and tumorigenicity” (Scientific Reports, 2017).

Experiments:
Test in all cases: biochemical
Design in all cases: KINOMEscan (DiscoverX) competition binding screen of 97 human kinases, percent of control at 10 uM
[1] = biological target: RAF1 (Homo sapiens, UniProt P04049)
Method: (§1) The KINOMEscan profiling of the inhibitors were performed as per directions by the manufacturer (DiscoverX) against a panel of human protein kinases.

[2] = biological target: T1, p38-beta (Homo sapiens, UniProt Q15759)
T1 construct: gene MAPK11
Method: as §1

[3] = biological target: PLK4 (Homo sapiens, UniProt O00444)
Method: as §1

[4] = biological target: MAP3K4 (Homo sapiens, UniProt Q9Y6R4)
Method: as §1

[5] = biological target: T2, ERK1 (Homo sapiens, UniProt P27361)
T2 construct: gene MAPK3
Method: as §1

[6] = biological target: GSK3B (Homo sapiens, UniProt P49841)
Method: as §1

[7] = biological target: PDGFRB (Homo sapiens, UniProt P09619)
Method: as §1

[8] = biological target: AURKB (Homo sapiens, UniProt Q96GD4)
Method: as §1

[9] = biological target: FGFR3 (Homo sapiens, UniProt P22607)
Method: as §1

[10] = biological target: SRC (Homo sapiens, UniProt P12931)
Method: as §1

[11] = biological target: CSF1R (Homo sapiens, UniProt P07333)
Method: as §1

[12] = biological target: PIK3C2B (Homo sapiens, UniProt O00750)
Method: as §1

[13] = biological target: ROCK2 (Homo sapiens, UniProt O75116)
Method: as §1

[14] = biological target: T3, ABL1-nonphosphorylated (Homo sapiens, UniProt P00519)
T3 construct: nonphosphorylated
Method: as §1

[15] = biological target: T4, MLK1 (Homo sapiens, UniProt P80192)
T4 construct: gene MAP3K9
Method: as §1

[16] = biological target: PAK1 (Homo sapiens, UniProt Q13153)
Method: as §1

[17] = biological target: T5, IKK-alpha (Homo sapiens, UniProt O15111)
T5 construct: gene CHUK
Method: as §1

[18] = biological target: MKNK1 (Homo sapiens, UniProt Q9BUB5)
Method: as §1

[19] = biological target: CDK2 (Homo sapiens, UniProt P24941)
Method: as §1

[20] = biological target: TGFBR1 (Homo sapiens, UniProt P36897)
Method: as §1

[21] = biological target: RIOK2 (Homo sapiens, UniProt Q9BVS4)
Method: as §1

[22] = biological target: T6, JNK2 (Homo sapiens, UniProt P45984)
T6 construct: gene MAPK9
Method: as §1

[23] = biological target: PIM3 (Homo sapiens, UniProt Q86V86)
Method: as §1

[24] = biological target: ZAP70 (Homo sapiens, UniProt P43403)
Method: as §1

[25] = read-out: R428 %Ctrl @ 10000nM, binding competition
[26] = binding competition, % of control, read-out: RU-301 %Ctrl @ 10000nM

Sequence of AURKB (Q96GD4 whole entry): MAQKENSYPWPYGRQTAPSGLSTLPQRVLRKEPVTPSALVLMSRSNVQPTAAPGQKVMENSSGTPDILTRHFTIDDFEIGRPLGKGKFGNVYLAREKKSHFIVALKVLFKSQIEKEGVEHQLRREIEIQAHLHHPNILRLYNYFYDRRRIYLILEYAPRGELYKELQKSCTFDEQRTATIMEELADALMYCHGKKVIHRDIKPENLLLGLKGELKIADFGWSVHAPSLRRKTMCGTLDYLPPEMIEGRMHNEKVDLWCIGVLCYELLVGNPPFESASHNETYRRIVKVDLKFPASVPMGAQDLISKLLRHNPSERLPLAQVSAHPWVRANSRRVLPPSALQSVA
T5 sequence (O15111 whole entry): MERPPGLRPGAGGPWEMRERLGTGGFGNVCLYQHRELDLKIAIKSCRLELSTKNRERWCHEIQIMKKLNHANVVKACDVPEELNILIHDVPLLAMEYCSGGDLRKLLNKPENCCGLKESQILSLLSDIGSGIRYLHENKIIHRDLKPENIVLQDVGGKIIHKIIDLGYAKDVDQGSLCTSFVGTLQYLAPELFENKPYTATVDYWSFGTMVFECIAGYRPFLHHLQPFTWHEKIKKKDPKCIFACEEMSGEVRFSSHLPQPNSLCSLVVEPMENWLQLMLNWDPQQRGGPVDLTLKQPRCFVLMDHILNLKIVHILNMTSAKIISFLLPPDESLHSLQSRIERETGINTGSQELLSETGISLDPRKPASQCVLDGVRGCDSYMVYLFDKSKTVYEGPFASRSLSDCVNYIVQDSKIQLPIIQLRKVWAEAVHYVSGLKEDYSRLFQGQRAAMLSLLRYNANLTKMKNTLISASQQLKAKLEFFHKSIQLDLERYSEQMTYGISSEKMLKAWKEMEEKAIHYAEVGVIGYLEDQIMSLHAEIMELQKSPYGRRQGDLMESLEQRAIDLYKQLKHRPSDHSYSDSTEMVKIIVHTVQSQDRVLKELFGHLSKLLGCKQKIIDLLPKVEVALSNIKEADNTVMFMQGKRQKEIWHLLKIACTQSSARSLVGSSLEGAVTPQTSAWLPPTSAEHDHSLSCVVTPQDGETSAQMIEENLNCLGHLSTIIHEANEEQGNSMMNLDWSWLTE
Sequence of RIOK2 (Q9BVS4 whole entry): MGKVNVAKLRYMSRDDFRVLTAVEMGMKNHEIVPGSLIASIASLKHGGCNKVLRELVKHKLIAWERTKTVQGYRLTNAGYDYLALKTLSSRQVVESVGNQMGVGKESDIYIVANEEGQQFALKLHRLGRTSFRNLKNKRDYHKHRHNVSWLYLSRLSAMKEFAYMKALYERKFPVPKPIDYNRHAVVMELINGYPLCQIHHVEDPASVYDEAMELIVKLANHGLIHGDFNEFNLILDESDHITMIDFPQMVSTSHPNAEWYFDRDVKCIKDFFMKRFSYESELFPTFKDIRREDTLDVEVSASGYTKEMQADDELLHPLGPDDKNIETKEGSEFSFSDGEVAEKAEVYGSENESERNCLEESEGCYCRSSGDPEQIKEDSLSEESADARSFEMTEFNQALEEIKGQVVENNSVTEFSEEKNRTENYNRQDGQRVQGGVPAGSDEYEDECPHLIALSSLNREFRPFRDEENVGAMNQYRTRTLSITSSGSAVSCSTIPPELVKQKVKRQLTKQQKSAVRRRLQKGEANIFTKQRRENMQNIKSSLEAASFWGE
Sequence of PLK4 (O00444 whole entry): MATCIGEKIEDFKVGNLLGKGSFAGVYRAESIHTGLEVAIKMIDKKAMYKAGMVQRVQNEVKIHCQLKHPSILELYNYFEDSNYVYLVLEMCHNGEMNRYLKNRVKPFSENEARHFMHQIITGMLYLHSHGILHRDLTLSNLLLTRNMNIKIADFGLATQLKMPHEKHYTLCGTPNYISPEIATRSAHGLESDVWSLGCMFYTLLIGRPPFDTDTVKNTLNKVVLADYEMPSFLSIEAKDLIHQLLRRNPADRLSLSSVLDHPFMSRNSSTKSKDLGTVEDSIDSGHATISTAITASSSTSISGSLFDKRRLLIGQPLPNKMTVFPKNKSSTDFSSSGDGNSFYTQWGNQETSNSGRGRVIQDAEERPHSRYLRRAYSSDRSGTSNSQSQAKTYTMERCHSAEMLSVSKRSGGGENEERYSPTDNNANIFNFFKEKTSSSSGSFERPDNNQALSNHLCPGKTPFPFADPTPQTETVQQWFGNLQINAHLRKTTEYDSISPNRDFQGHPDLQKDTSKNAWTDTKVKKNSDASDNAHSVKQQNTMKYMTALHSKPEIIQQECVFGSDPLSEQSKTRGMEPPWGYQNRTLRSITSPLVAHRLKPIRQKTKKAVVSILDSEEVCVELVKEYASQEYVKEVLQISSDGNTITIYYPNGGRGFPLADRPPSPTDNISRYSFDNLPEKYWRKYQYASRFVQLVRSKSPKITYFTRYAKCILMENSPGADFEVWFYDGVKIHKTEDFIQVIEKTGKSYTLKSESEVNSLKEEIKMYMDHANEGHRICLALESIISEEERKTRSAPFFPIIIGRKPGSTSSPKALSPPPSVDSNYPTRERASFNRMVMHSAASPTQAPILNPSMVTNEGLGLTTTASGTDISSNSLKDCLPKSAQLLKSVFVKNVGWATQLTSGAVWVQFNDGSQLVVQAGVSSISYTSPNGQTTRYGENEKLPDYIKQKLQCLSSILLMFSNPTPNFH
T3 sequence (P00519 whole entry): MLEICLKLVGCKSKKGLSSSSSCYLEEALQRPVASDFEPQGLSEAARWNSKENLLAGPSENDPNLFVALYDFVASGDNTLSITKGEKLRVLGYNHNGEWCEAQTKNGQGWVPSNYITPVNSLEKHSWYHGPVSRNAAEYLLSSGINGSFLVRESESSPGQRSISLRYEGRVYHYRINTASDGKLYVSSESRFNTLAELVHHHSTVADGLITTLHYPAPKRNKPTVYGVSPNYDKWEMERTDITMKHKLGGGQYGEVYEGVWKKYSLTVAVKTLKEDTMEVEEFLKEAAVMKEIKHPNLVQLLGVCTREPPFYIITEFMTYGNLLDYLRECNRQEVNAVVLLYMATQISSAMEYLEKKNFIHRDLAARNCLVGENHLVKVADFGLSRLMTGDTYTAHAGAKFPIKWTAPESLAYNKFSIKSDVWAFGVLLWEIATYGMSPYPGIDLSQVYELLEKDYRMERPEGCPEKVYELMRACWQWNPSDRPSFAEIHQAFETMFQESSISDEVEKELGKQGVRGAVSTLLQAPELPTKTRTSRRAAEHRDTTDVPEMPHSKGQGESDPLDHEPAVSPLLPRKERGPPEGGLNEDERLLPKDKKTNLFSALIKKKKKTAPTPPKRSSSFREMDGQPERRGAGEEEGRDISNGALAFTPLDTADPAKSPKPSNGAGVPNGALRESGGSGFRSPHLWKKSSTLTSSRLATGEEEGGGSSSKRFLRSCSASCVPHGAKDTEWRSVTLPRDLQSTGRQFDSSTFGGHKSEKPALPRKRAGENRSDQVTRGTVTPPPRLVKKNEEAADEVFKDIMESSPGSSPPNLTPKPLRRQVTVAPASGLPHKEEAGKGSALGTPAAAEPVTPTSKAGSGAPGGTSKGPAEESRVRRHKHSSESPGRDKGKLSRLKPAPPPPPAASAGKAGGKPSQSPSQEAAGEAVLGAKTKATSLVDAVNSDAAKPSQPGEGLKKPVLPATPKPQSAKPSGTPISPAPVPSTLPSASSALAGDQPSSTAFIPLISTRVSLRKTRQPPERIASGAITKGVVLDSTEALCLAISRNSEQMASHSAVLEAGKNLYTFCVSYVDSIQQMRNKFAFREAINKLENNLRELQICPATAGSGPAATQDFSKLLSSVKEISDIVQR
Sequence of RAF1 (P04049 whole entry): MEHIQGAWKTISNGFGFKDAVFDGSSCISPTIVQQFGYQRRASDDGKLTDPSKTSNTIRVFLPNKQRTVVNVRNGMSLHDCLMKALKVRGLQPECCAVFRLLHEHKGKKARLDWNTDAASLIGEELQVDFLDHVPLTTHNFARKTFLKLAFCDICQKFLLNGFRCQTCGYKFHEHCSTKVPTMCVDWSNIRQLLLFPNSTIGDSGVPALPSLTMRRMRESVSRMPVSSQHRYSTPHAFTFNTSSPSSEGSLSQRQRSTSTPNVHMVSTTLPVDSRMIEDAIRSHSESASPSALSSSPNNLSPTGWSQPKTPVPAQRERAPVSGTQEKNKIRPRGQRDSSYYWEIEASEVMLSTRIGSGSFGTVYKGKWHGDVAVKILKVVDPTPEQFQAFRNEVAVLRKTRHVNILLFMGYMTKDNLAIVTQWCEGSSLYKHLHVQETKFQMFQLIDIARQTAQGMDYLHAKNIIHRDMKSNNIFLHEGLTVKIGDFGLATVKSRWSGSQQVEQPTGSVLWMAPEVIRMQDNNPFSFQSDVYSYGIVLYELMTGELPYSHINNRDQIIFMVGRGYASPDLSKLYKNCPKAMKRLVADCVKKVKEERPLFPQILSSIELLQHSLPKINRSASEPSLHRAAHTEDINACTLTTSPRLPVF

## Nc1nc(Nc2ccc3c(c2)CC[C@@H](N2CCCC2)CC3)nn1-c1cc2c(nn1)-c1ccccc1CCC2 [R428]
[1]; [25]
  percent of control binding at 10 µM: 100%
[2]; [25]
  percent of control binding at 10 µM: 84%
[3]; [25]
  percent of control binding at 10 µM: 1.7%
[4]; [25]
  percent of control binding at 10 µM: 0.7%
[5]; [25]
  percent of control binding at 10 µM: 100%
[6]; [25]
  percent of control binding at 10 µM: 74%
[7]; [25]
  percent of control binding at 10 µM: 0%
[8]; [25]
  percent of control binding at 10 µM: 0.45%
[9]; [25]
  percent of control binding at 10 µM: 30%
[10]; [25]
  percent of control binding at 10 µM: 14%
[11]; [25]
  percent of control binding at 10 µM: 0.35%
[12]; [25]
  percent of control binding at 10 µM: 31%
[13]; [25]
  percent of control binding at 10 µM: 3%
[14]; [25]
  percent of control binding at 10 µM: 0.25%
[15]; [25]
  percent of control binding at 10 µM: 2.2%
[16]; [25]
  percent of control binding at 10 µM: 74%
[17]; [25]
  percent of control binding at 10 µM: 0.5%
[18]; [25]
  percent of control binding at 10 µM: 19%
[19]; [25]
  percent of control binding at 10 µM: 71%
[20]; [25]
  percent of control binding at 10 µM: 75%
[21]; [25]
  percent of control binding at 10 µM: 94%
[22]; [25]
  percent of control binding at 10 µM: 96%
[23]; [25]
  percent of control binding at 10 µM: 84%
[24]; [25]
  percent of control binding at 10 µM: 33%

## Cc1cc(CSc2ccccc2C(=O)NCCNc2ccc(C(F)(F)F)cc2[N+](=O)[O-])on1 [RU-301]
[1]; [26]
  remaining binding at 10 µM: 84%
[2]; [26]
  remaining binding at 10 µM: 100%
[3]; [26]
  remaining binding at 10 µM: 81%
[4]; [26]
  remaining binding at 10 µM: 100%
[5]; [26]
  remaining binding at 10 µM: 100%
[6]; [26]
  remaining binding at 10 µM: 98%
[7]; [26]
  remaining binding at 10 µM: 91%
[8]; [26]
  remaining binding at 10 µM: 73%
[9]; [26]
  remaining binding at 10 µM: 91%
[10]; [26]
  remaining binding at 10 µM: 96%
[11]; [26]
  remaining binding at 10 µM: 90%
[12]; [26]
  remaining binding at 10 µM: 100%
[13]; [26]
  remaining binding at 10 µM: 75%
[14]; [26]
  remaining binding at 10 µM: 100%
[15]; [26]
  remaining binding at 10 µM: 100%
[16]; [26]
  remaining binding at 10 µM: 97%
[17]; [26]
  remaining binding at 10 µM: 86%
[18]; [26]
  remaining binding at 10 µM: 78%
[19]; [26]
  remaining binding at 10 µM: 100%
[20]; [26]
  remaining binding at 10 µM: 100%
[21]; [26]
  remaining binding at 10 µM: 100%
[22]; [26]
  remaining binding at 10 µM: 97%
[23]; [26]
  remaining binding at 10 µM: 86%
[24]; [26]
  remaining binding at 10 µM: 76%
